From patent US12302903B2, “Oxazepinone derivative, agricultural/horticultural insecticide containing the same, and method for using the same” (priority 2019, dated 2025) come the findings set out here.

One data set concerns zebrafish embryo. As to the kind of experiment: Teratogenicity test using zebrafish embryo. In kind it is in vivo. As to conditions: zebrafish embryos exposed from 6 hours after fertilization, cultured at 28° C. for five days, 0.1% dimethyl sulfoxide. How it is done:
Test Example 4. Teratogenicity Test Using Zebrafish Embryo
Fertilized eggs obtained by mating zebrafish were cultured in a medium (0.3× Danieau's solution) at 28° C. until 6 hours after fertilization. Thereafter, the embryo was transferred to a medium into which the compound expressed by General Formula (1) according to the present invention dissolved in dimethyl sulfoxide was added, and cultured at 28° C. for five days. The concentration of dimethyl sulfoxide in the medium was 0.1%. 12 embryos were tested in each test concentration of the present invention.
Observation sites: notochord, tail, somite, eye, otolith, jaw, heart, blood vessel, abdomen, fin, etc.
From the results of these observations, the presence or absence of teratogenicity risk of the compound expressed by General Formula (1) according to the present invention and six compounds (Compound Nos. 4-10, 1-67, 1-1, 8-125, and 8-22, and a compound encompassed by the claims of Patent Literature 1 (Comparative Compound 4)) disclosed in the aforementioned Patent Literature 1 as the comparative compounds was determined.
It is noted that the teratogenicity test using zebrafish embryo is known to have good high predictivity to the teratogenicity test using the mammals (Reference Literature: Reproductive Toxicology 2012, (33), 155-164).
In the case of `COCN1C(=O)c2nn(-c3cccnc3)cc2Oc2cc(OC(F)(F)F)ccc21` [Comparative Compound 4], the Teratogenicity risk result is on record as “Yes”.
Same read-out and setting: under `O=C1Nc2ccccc2Oc2cn(-c3cccnc3)nc21` [Comparative Compound 3] stands “Yes”; under `CN1C(=O)c2nn(-c3cccnc3)cc2Oc2cc(OC(F)(F)F)ccc21` [Comparative Compound 5], “Yes”; under `COCN1C(=O)c2nn(-c3cccnc3)cc2Oc2c(F)cccc21` [Comparative Compound 6], “Yes”.
The same measure, in the same setting: under `COCN1C(=O)c2nn(-c3cccnc3)cc2Oc2ncccc21` [Compound No. 1-1, 9-(methoxymethyl)-2-(pyridin-3-yl)-2H-pyrazolo[3,4-f]pyrido[2,3-b][1,4]oxazepine-10(9H)-one] stands “No”; under `CN1C(=O)c2nn(-c3cccnc3)cc2Oc2ncc(C(F)(F)F)cc21` [Comparative Compound 1], “Yes”; under `COCN1C(=O)c2nn(-c3cccnc3)cc2Oc2ccccc21` [Comparative Compound 2], “Yes”.

Another data set deals with Small Brown Planthopper (Laodelphax Striatellus). As to the kind of experiment: Test of insecticidal efficacy against Small Brown Planthopper (rice seedling dip). It counts as in vivo. As to conditions: 192 h, read-out: corrected insect mortality judgement against small brown planthopper. How it is done:
Test Example 2. Test of Insecticidal Efficacy Against Small Brown Planthopper (Laodelphax Striatellus)
The compound or salt thereof expressed by General Formula (1) according to the present invention was dispersed in water and the dispersion was diluted to 50 ppm in the form of a reagent, after which rice plants raised from seeds (variety: Nipponbare) were soaked in the reagent for 30 seconds and dried under wind, and then placed in glass test tubes, each of which was inoculated with 10 third-instar larvae of small brown planthoppers and sealed with cotton, and eight days after the inoculation, the number of live insects and that of dead insects were examined and the corrected insect mortality was calculated based on the formula below, and judgement was made according to the criteria below.
[formula] [formula] Criteria A—Corrected insect mortality: 100% B—Corrected insect mortality: 99% to 90% C—Corrected insect mortality: 89% to 80% D—Corrected insect mortality: 79% to 50%
With `COCN1C(=O)c2nn(-c3cccnc3)cc2Oc2ncccc21` [Compound No. 1-1, 9-(methoxymethyl)-2-(pyridin-3-yl)-2H-pyrazolo[3,4-f]pyrido[2,3-b][1,4]oxazepine-10(9H)-one], the mortality at 50 ppm was 100%.
